Experimental data reported in patent publication US20250353852A1, “COMPOUNDS AND COMPOSITIONS THAT INHIBIT PIKFYVE” (Kineta, Inc., priority 2021, published 2025).

Target: full-length human PIKFYVE (Homo sapiens (Human), UniProt Q9Y2I7, L932S/Q1183K/Q995L/S1033A/S696N/T998S)
Assay: PIKfyve biochemical assay (ADP-Glo Kinase assay, Carna Biosciences)
Procedure, shortened: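 N-terminal GST-fused full-length PIKFYVE from baculovirus, incubated with compound, substrate and ATP in 50 mM MOPS, 1 mM DTT, pH7.2 for 1 hour at room temperature. ADP formed detected by ADP-Glo luminescence; IC50 from four-parameter logistic fit of % inhibition.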

full-length human PIKFYVE, sequence (Q9Y2I7 whole entry S696N/L932S/Q995L/T998S/S1033A/Q1183K): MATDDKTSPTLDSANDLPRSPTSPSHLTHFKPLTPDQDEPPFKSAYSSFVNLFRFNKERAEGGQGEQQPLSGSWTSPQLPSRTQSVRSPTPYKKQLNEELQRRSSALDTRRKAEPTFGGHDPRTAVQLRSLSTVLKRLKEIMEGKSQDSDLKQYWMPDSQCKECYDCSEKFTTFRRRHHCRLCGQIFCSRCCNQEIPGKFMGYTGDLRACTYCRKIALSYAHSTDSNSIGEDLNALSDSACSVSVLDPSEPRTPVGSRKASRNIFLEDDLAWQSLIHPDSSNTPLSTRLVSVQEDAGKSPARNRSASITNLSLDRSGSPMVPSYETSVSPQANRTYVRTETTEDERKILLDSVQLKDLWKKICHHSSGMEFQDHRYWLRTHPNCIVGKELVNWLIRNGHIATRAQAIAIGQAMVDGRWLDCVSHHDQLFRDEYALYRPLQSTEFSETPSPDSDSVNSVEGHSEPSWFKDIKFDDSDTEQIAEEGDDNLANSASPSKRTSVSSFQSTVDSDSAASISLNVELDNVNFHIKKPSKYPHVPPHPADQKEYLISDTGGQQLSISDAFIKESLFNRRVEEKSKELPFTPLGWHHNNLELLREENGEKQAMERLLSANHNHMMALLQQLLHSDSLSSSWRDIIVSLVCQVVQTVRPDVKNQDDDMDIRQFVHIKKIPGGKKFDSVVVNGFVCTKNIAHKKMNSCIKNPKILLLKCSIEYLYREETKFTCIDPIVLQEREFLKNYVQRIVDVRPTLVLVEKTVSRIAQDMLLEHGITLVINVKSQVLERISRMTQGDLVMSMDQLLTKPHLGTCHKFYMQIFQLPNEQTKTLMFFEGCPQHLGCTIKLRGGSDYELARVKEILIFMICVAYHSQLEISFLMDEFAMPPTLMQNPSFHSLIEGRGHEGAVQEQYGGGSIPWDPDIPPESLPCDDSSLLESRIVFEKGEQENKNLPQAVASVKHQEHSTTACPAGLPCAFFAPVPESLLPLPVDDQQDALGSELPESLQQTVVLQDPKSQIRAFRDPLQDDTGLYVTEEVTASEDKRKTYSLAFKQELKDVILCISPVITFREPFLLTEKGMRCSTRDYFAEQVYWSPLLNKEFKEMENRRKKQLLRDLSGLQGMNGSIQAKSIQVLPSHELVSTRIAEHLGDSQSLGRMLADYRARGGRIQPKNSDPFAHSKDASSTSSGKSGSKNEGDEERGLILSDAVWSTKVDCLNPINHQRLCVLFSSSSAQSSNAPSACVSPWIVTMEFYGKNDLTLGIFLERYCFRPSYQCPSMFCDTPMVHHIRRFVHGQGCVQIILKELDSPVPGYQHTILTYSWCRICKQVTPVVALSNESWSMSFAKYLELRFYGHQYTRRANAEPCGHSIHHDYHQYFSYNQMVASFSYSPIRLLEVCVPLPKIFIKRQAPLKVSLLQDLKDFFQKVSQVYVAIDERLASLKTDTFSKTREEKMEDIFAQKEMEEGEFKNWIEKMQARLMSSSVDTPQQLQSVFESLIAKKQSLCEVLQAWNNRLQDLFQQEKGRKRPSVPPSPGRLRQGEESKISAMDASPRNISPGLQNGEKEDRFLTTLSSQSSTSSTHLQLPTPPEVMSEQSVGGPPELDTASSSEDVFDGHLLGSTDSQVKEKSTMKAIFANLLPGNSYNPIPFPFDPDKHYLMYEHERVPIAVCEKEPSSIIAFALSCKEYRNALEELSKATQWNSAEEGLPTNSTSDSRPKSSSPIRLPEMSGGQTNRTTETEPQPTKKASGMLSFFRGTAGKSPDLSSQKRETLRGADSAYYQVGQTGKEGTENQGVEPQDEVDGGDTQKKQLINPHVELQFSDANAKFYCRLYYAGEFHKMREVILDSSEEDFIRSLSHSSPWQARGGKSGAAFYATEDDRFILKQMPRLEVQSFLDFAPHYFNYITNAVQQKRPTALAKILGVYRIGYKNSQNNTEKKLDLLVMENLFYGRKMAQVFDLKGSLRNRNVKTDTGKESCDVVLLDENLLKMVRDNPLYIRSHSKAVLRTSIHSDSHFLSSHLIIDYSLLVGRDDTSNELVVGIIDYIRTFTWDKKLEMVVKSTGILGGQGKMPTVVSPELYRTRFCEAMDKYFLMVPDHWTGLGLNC

**Q.** For `CN1CCN(c2cc(N3CCOCC3)n3nc(-c4ccncc4)cc3n2)C(Cc2ccccc2)C1` (stereo not shown) [Compound 118, 4-(5-(2-benzyl-4-methylpiperazin-1-yl)-2-(pyridin-4-yl)pyrazolo[1,5-a]pyrimidin-7-yl)morpholine], which IC50 (class symbols) is on record?
**A.** Its IC50 is 1000 to 10000 nM.

**Q.** With `OCC(O)c1cc2nc(-n3ccc(-c4ccccc4)n3)cc(N3CCOCC3)n2n1` (stereo not shown) [Compound 144, 1-(7-morpholino-5-(3-phenyl-1H-pyrazol-1-yl)pyrazolo[1,5-a]pyrimidin-2-yl)ethane-1,2-diol] as the molecule, how does the IC50 (class symbols) read?
**A.** Its IC50 is 10 to 100 nM.

**Q.** Which IC50 (class symbols) does the source give for `Cc1cccc(/C=N/Nc2cc(N3CC4CC3CO4)n3nc(-c4ccncc4)cc3n2)c1` (stereo not shown) [Compound 1, (E)-5-(5-(2-(3-methylbenzylidene)hydrazinyl)-2-(pyridin-4-yl)pyrazolo[1,5-a]pyrimidin-7-yl)-2-oxa-5-azabicyclo[2.2.1]heptane] here?
**A.** Its IC50 is 10 to 100 nM.

**Q.** With `CN1CCC(c2cc(O)n(-c3cc(N4CCOCC4)n4nc(-c5ccncc5)cc4n3)n2)CC1` [Compound 56, 3-(1-methylpiperidin-4-yl)-1-(7-morpholino-2-(pyridin-4-yl)pyrazolo[1,5-a]pyrimidin-5-yl)-1H-pyrazol-5-ol] as the molecule, how does the IC50 (class symbols) read?
**A.** The IC50 was 100 to 1000 nM.

**Q.** Which IC50 (class symbols) does the source give for `c1ccc(-c2nsc(-c3cc(N4CCOCC4)n4nc(-c5ccncc5)cc4n3)n2)cc1` [Compound 127, 4-(5-(3-phenyl-1,2,4-thiadiazol-5-yl)-2-(pyridin-4-yl)pyrazolo[1,5-a]pyrimidin-7-yl)morpholine] here?
**A.** The IC50 was 10 to 100 nM.

**Q.** For `Oc1cc(-c2ccccc2F)nn1-c1cc(N2CCOCC2)n2nc(-c3ccncc3)cc2n1` [Compound 53, 3-(2-fluorophenyl)-1-(7-morpholino-2-(pyridin-4-yl)pyrazolo[1,5-a]pyrimidin-5-yl)-1H-pyrazol-5-ol], which IC50 (class symbols) is on record?
**A.** The IC50 was 10 to 100 nM.

**Q.** Which IC50 (class symbols) does the source give for `c1cc(-c2cc3nc(-n4ccc(-c5ccnnc5)n4)cc(N4CCOCC4)n3n2)ccn1` [Compound 69, 4-(5-(3-(pyridazin-4-yl)-1H-pyrazol-1-yl)-2-(pyridin-4-yl)pyrazolo[1,5-a]pyrimidin-7-yl)morpholine] here?
**A.** The IC50 was 100 to 1000 nM.

**Q.** With `CC(C)c1cc(O)n(-c2cc(N3CCOCC3)n3nc(-c4ccncc4)cc3n2)n1` [Compound 54, 3-isopropyl-1-(7-morpholino-2-(pyridin-4-yl)pyrazolo[1,5-a]pyrimidin-5-yl)-1H-pyrazol-5-ol] as the molecule, how does the IC50 (class symbols) read?
**A.** Its IC50 is 100 to 1000 nM.

**Q.** `CC(C)(C)OC(=O)NC(=N)c1cc(N2CCOCC2)n2nc(-c3ccncc3)cc2n1` [Compound 115, tert-butyl imino(7-morpholino-2-(pyridin-4-yl)pyrazolo[1,5-a]pyrimidin-5-yl)methylcarbamate] was tested. Which IC50 (class symbols) did it give?
**A.** The IC50 was 100 to 1000 nM.

**Q.** Which IC50 (class symbols) does the source give for `c1cc(-c2cc3nc(-n4ccc(C5CCCOC5)n4)cc(N4CCOCC4)n3n2)ccn1` (stereo not shown) [Compound 61, 4-(2-(pyridin-4-yl)-5-(3-(tetrahydro-2H-pyran-3-yl)-1H-pyrazol-1-yl)pyrazolo[1,5-a]pyrimidin-7-yl)morpholine] here?
**A.** The IC50 was 1000 to 10000 nM.

**Q.** With `O=C(/C=C/c1ccccc1)c1cc(N2CCOCC2)n2nc(-c3ccncc3)cc2n1` [Compound 114, 1-(7-morpholino-2-(pyridin-4-yl)pyrazolo[1,5-a]pyrimidin-5-yl)-3-phenylprop-2-en-1-one] as the molecule, how does the IC50 (class symbols) read?
**A.** The IC50 was 1000 to 10000 nM.

**Q.** With `O=c1ccc(-c2ccccc2)nn1-c1cc(N2CCOCC2)n2nc(-c3ccncc3)cc2n1` [Compound 3, 2-(7-morpholino-2-(pyridin-4-yl)pyrazolo[1,5-a]pyrimidin-5-yl)-6-phenylpyridazin-3(2H)-one] as the molecule, how does the IC50 (class symbols) read?
**A.** Its IC50 is 100 to 1000 nM.

**Q.** With `CN1CCN(c2cc(N3CCOCC3)n3nc(-c4ccncc4)cc3n2)C(=O)C1c1ccccc1` (stereo not shown) [Compound 27, 4-methyl-1-(7-morpholino-2-(pyridin-4-yl)pyrazolo[1,5-a]pyrimidin-5-yI)-3-phenylpiperazin-2-one] as the molecule, how does the IC50 (class symbols) read?
**A.** Its IC50 is 1000 to 10000 nM.

**Q.** For `c1ccc(-n2nccc2-c2cc(N3CCOCC3)n3nc(-c4ccncc4)cc3n2)cc1` [Compound 146, 4-(5-(1-phenyl-1H-pyrazol-5-yl)-2-(pyridin-4-yl)pyrazolo[1,5-a]pyrimidin-7-yl)morpholine], which IC50 (class symbols) is on record?
**A.** Its IC50 is 100 to 1000 nM.

**Q.** `Fc1cccc(-c2ccnn2-c2cc(N3CCOCC3)n3nc(-c4ccncc4)cc3n2)c1` [Compound 147, 4-(5-(5-(3-fluorophenyl)-1H-pyrazol-1-yl)-2-(pyridin-4-yl)pyrazolo[1,5-a]pyrimidin-7-yl)morpholine] was tested. Which IC50 (numeric values) did it give?
**A.** Its IC50 is 1570 nM.

**Q.** For `Oc1cc(C2CCOCC2)nn1-c1cc(N2CCOCC2)n2nc(-c3ccncc3)cc2n1` [Compound 50, 1-(7-morpholino-2-(pyridin-4-yl)pyrazolo[1,5-a]pyrimidin-5-yl)-3-(tetrahydro-2H-pyran-4-yl)-1H-pyrazol-5-ol], which IC50 (class symbols) is on record?
**A.** Its IC50 is 100 to 1000 nM.

**Q.** Which IC50 (class symbols) does the source give for `COCC1(c2ccn(-c3cc(N4CCOCC4)n4nc(-c5ccncc5)cc4n3)n2)CC1` [Compound 83, 4-(5-(3-(1-(methoxymethyl)cyclopropyl)-1H-pyrazol-1-yl)-2-(pyridin-4-yl)pyrazolo[1,5-a]pyrimidin-7-yl)morpholine] here?
**A.** Its IC50 is 100 to 1000 nM.

**Q.** With `c1ccc(-c2ccn(-c3cc(N4CCOCC4)n4nc(-c5ccncc5)cc4n3)n2)cc1` [Compound 148] as the molecule, how does the IC50 (class symbols) read?
**A.** The IC50 was 10 to 100 nM.

**Q.** Which IC50 (class symbols) does the source give for `c1cc(-c2cc3nc(-n4cnc(C5CCCNC5)c4)cc(N4CCOCC4)n3n2)ccn1` (stereo not shown) [Compound 16, 4-(5-(4-(piperidin-3-yl)-1H-imidazol-1-yl)-2-(pyridin-4-yl)pyrazolo[1,5-a]pyrimidin-7-yl)morpholine] here?
**A.** Its IC50 is 1000 to 10000 nM.

**Q.** For `c1ccc(C2CCN(c3cc(N4CCOCC4)n4nc(-c5ccncc5)cc4n3)C2)cc1` (stereo not shown) [Compound 33, 4-(5-(3-phenylpyrrolidin-1-yl)-2-(pyridin-4-yl)pyrazolo[1,5-a]pyrimidin-7-yl)morpholine], which IC50 (class symbols) is on record?
**A.** Its IC50 is 1000 to 10000 nM.

**Q.** Which IC50 (class symbols) does the source give for `Fc1ccc(Oc2ncccc2-c2cc(N3CCOCC3)n3nc(-c4ccncc4)cc3n2)cc1` [Compound 138, 4-(5-(2-(4-fluorophenoxy)pyridin-3-yl)-2-(pyridin-4-yl)pyrazolo[1,5-a]pyrimidin-7-yl)morpholine] here?
**A.** Its IC50 is 100 to 1000 nM.

**Q.** Which IC50 (class symbols) does the source give for `O=C1COC(c2ccccc2)CN1c1cc(N2CCOCC2)n2nc(-c3ccncc3)cc2n1` (stereo not shown) [Compound 135, 4-(7-morpholino-2-(pyridin-4-yl)pyrazolo[1,5-a]pyrimidin-5-yl)-6-phenylmorpholin-3-one] here?
**A.** Its IC50 is 1000 to 10000 nM.

**Q.** Which IC50 (class symbols) does the source give for `CN1CCCC(c2cn(-c3cc(N4CCOCC4)n4nc(-c5ccncc5)cc4n3)cn2)C1` (stereo not shown) [Compound 18, 4-(5-(4-(1-methylpiperidin-3-yl)-1H-imidazol-1-yl)-2-(pyridin-4-yl)pyrazolo[1,5-a]pyrimidin-7-yl)morpholine] here?
**A.** Its IC50 is 1000 to 10000 nM.

**Q.** For `c1cc(-c2cc3nc(-n4ncc5c4CCCC5)cc(N4CCOCC4)n3n2)ccn1` [Compound 86, 4-(2-(pyridin-4-yl)-5-(4,5,6,7-tetrahydro-1H-indazol-1-yl)pyrazolo[1,5-a]pyrimidin-7-yl)morpholine], which IC50 (class symbols) is on record?
**A.** The IC50 was 1000 to 10000 nM.

**Q.** With `CC(C)(C)OC(=O)N1CCCC(c2cn(-c3cc(N4CCOCC4)n4nc(-c5ccncc5)cc4n3)cn2)C1` (stereo not shown) [Compound 15, tert-butyl 3-(1-(7-morpholino-2-(pyridin-4-yl)pyrazolo[1,5-a]pyrimidin-5-yl)-1H-imidazol-4-yl)piperidine-1-carboxylate] as the molecule, how does the IC50 (class symbols) read?
**A.** Its IC50 is 1000 to 10000 nM.

**Q.** With `c1cc(-c2cc3nc(-n4ccc(-c5cncnc5)n4)cc(N4CCOCC4)n3n2)ccn1` [Compound 72, 4-(2-(pyridin-4-yl)-5-(3-(pyrimidin-5-yl)-1H-pyrazol-1-yl)pyrazolo[1,5-a]pyrimidin-7-yl)morpholine] as the molecule, how does the IC50 (class symbols) read?
**A.** Its IC50 is 100 to 1000 nM.

**Q.** With `Fc1cccc(-c2ccn(-c3cc(N4CCOCC4)n4nc(C5CCCO5)cc4n3)n2)c1` (stereo not shown) [Compound 94, 4-(5-(3-(3-fluorophenyl)-1H-pyrazol-1-yl)-2-(tetrahydrofuran-2-yl)pyrazolo[1,5-a]pyrimidin-7-yl)morpholine] as the molecule, how does the IC50 (class symbols) read?
**A.** Its IC50 is 100 to 1000 nM.

**Q.** “4-(5-(3-(3-fluorophenyl)-1H-pyrazol-1-yl)-2-(pyridin-4-yl)pyrazolo[1,5-a]pyrimidin-7-yl)morpholine [Compound 64]” was tested. Which IC50 (class symbols) did it give?
**A.** Its IC50 is 10 to 100 nM.

**Q.** For `c1ccc(Oc2cccnc2-c2cc(N3CCOCC3)n3nc(-c4ccncc4)cc3n2)cc1` [Compound 41, 4-(5-(3-phenoxypyridin-2-yl)-2-(pyridin-4-yl)pyrazolo[1,5-a]pyrimidin-7-yl)morpholine], which IC50 (class symbols) is on record?
**A.** Its IC50 is 100 to 1000 nM.

**Q.** For `O=C1C(c2ccccc2)CCCN1c1cc(N2CCOCC2)n2nc(-c3ccncc3)cc2n1` (stereo not shown) [Compound 24, 1-(7-morpholino-2-(pyridin-4-yl)pyrazolo[1,5-a]pyrimidin-5-yl)-3-phenylpiperidin-2-one], which IC50 (class symbols) is on record?
**A.** Its IC50 is 1000 to 10000 nM.

**Q.** Which IC50 (class symbols) does the source give for `c1ccc(Oc2ncccc2-c2cc(N3CCOCC3)n3nc(-c4ccncc4)cc3n2)cc1` [Compound 42, 4-(5-(2-phenoxypyridin-3-yl)-2-(pyridin-4-yl)pyrazolo[1,5-a]pyrimidin-7-yl)morpholine] here?
**A.** Its IC50 is 100 to 1000 nM.

**Q.** How did the IC50 (class symbols) turn out when `c1cc(-c2cc3nc(-n4cc5c(n4)CCCC5)cc(N4CCOCC4)n3n2)ccn1` [Compound 85, 4-(2-(pyridin-4-yl)-5-(4,5,6,7-tetrahydro-2H-indazol-2-yl)pyrazolo[1,5-a]pyrimidin-7-yl)morpholine] was run?
**A.** Its IC50 is 100 to 1000 nM.

**Q.** For `CCOC(=O)Cc1cc(N2CCOCC2)n2nc(-c3ccncc3)cc2n1` [Compound 133, ethyl 2-(7-morpholino-2-(pyridin-4-yl)pyrazolo[1,5-a]pyrimidin-5-yl)acetate], which IC50 (class symbols) is on record?
**A.** Its IC50 is 1000 to 10000 nM.

**Q.** With `CN1CC(=O)N(c2cc(N3CCOCC3)n3nc(-c4ccncc4)cc3n2)CC1c1ccccc1` (stereo not shown) [Compound 136, 4-methyl-1-(7-morpholino-2-(pyridin-4-yl)pyrazolo[1,5-a]pyrimidin-5-yl)-5-phenylpiperazin-2-one] as the molecule, how does the IC50 (class symbols) read?
**A.** Its IC50 is 1000 to 10000 nM.

**Q.** “4-(5-(3-(2-fluorophenyl)-1H-pyrazol-1-yl)-2-(tetrahydrofuran-2-yl)pyrazolo[1,5-a]pyrimidin-7-yl)morpholine [Compound 91]” was tested. Which IC50 (class symbols) did it give?
**A.** Its IC50 is 100 to 1000 nM.

**Q.** How did the IC50 (class symbols) turn out when `COc1cnn(-c2cc(N3CCOCC3)n3nc(-c4ccncc4)cc3n2)c(=O)c1Br` [Compound 7, 4-bromo-5-methoxy-2-(7-morpholino-2-(pyridin-4-yl)pyrazolo[1,5-a]pyrimidin-5-yl)pyridazin-3(2H)-one] was run?
**A.** Its IC50 is 1000 to 10000 nM.

**Q.** How did the IC50 (class symbols) turn out when `c1ccc(N2CC(c3cc(N4CCOCC4)n4nc(-c5ccncc5)cc4n3)C2)cc1` [Compound 121, 4-(5-(1-phenylazetidin-3-yl)-2-(pyridin-4-yl)pyrazolo[1,5-a]pyrimidin-7-yl)morpholine] was run?
**A.** Its IC50 is greater than 10000 nM.
